Reference: PMC4772377, “Structural insights into Cydia pomonella pheromone binding protein 2 mediated prediction of potentially active semiochemicals” (Scientific Reports, 2016)

Molecular target: CpomPBP2 (Cydia pomonella, UniProt I3ZNT9)
Assay: Competitive fluorescence binding assay with 1-NPN probe
Conditions: 2 μM CpomPBP2 and 2 μM 1-NPN, 50 mM Tris-HCl pH 6.8 (text: pH7.0); calculated from IC50; read-out: KD (dissociation constant of competitor)

Sequence of CpomPBP2 (I3ZNT9 26-169 limits assumed): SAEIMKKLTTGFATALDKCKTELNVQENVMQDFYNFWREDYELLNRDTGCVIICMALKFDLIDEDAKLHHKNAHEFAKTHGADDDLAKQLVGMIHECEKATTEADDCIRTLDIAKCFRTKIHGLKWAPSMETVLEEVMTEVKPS

Row | SMILES | Kd [µM]
1 | CCCCCCC/C=C/C=C/C=O [E,E-2,4-Dodecadienal] | 6.99 ± 0.72
2 | CCCCCCOC(=O)CCCCC [Hexyl Hexanoate] | 16.2 ± 0.84
3 | CCC=CCCOC(=O)C(C)CC (stereo not drawn) [Z-3-Hexenyl-2-Methylbutanoate] | 97 ± 2.26
